Measured values published in paper PMC9413508, “PI3K/mTOR Dual Inhibitor Pictilisib Stably Binds to Site I of Human Serum Albumin as Observed by Computer Simulation, Multispectroscopic, and Microscopic Studies” (Molecules, 2022).

Biological target: T1, human serum albumin (HSA) (Homo sapiens, UniProt P02768)
T1 construct: gene ALB; fatty-acid-free HSA, commercial (Sigma-Aldrich); mature protein, 585 residues, monomer
Experiment: intrinsic Trp fluorescence quenching, double-log plot
Format: binding
Conditions: 298 K, pH 7.4 PBS 10 mM, HSA 2 μM; λex 280 nm; n = 1.14; site I (subdomain IIA)
Experimental: intrinsic Trp fluorescence quenching, double-log plot on human serum albumin (HSA) | the association constant (Ka) between GDC-0941 and HSA was calculated

T1 sequence (P02768 25-609): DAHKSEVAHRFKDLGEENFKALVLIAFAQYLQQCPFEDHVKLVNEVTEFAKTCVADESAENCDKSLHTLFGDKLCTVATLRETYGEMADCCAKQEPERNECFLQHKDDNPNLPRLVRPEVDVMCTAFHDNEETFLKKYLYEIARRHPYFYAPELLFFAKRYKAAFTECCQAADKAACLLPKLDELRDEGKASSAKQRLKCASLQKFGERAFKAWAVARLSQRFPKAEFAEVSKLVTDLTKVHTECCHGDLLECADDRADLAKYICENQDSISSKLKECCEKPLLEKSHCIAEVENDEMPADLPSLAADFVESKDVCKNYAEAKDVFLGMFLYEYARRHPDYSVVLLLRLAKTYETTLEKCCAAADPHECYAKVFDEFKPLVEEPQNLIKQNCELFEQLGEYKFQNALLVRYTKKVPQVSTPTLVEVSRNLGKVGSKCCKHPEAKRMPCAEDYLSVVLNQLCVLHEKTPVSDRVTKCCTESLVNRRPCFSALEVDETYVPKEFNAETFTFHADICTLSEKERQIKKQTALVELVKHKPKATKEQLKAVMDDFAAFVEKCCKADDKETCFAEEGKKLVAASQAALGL

Ka (×10^5 M^-1): 4.09 ×10^5 M^−1
SMILES: CS(=O)(=O)N1CCN(Cc2cc3nc(-c4cccc5[nH]ncc45)nc(N4CCOCC4)c3s2)CC1 [GDC-0941]
